According to ChEMBL document CHEMBL4419163, “Assays for identifying compounds that modulate bitter taste” (2014):

Key:
Type in all cases: functional, cell-based
[1] = target: T1, Taste receptor type 2 member 7 (Homo sapiens) (UniProt Q9NYW3); assay: Agonist activity at human TAS2R7 expressed in HEK293T cells co-expressing Galpha15 assessed as increase in intracellular calcium level at 20 mM by Calcium-3 dye based fluorescence assay relative to control
T1 sequence (whole entry): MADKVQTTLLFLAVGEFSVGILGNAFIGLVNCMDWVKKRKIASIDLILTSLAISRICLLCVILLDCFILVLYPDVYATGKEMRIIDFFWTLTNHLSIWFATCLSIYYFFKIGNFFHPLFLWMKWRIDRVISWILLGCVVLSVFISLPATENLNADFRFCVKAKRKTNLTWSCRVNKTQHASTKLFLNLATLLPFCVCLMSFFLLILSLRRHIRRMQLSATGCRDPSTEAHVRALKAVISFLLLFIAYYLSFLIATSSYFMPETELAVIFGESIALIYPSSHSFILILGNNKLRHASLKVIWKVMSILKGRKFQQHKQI

[2] = target: T2, Taste receptor type 2 member 3 (Homo sapiens) (UniProt Q9NYW6); assay: Agonist activity at human TAS2R3 expressed in HEK293T cells co-expressing Galpha15 assessed as increase in intracellular calcium level at 20 mM by Calcium-3 dye based fluorescence assay relative to control
T2 sequence (whole entry): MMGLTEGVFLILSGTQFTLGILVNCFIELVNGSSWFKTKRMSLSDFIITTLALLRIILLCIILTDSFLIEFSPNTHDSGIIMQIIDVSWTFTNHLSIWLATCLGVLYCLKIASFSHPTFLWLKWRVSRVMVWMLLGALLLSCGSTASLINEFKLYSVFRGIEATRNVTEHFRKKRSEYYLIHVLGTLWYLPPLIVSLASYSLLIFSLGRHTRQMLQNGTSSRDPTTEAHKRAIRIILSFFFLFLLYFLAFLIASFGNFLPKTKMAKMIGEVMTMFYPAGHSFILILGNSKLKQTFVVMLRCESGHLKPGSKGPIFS

[3] = target: T3, Taste receptor type 2 member 19 (Homo sapiens) (UniProt P59542); assay: Agonist activity at human TAS2R48 expressed in HEK293T cells co-expressing Galpha15 assessed as increase in intracellular calcium level at 20 mM by Calcium-3 dye based fluorescence assay relative to control
T3 sequence (whole entry): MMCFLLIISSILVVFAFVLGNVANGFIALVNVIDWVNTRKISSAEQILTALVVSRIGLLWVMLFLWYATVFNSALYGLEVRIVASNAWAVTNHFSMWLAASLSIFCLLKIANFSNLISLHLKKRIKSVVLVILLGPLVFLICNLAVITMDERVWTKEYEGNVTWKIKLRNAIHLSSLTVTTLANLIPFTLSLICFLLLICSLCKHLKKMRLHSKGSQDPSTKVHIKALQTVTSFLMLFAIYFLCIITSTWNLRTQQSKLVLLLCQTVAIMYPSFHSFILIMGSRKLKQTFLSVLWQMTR

[4] = target: Taste receptor type 2 member 40 (Homo sapiens) (UniProt P59535); assay: Agonist activity at human TAS2R40 expressed in HEK293T cells co-expressing Galpha15 assessed as increase in intracellular calcium level at 20 mM by Calcium-3 dye based fluorescence assay relative to control
[5] = target: T4, Taste receptor type 2 member 20 (Homo sapiens) (UniProt P59543); assay: Agonist activity at human TAS2R49 expressed in HEK293T cells co-expressing Galpha15 assessed as increase in intracellular calcium level at 20 mM by Calcium-3 dye based fluorescence assay relative to control
T4 sequence (whole entry): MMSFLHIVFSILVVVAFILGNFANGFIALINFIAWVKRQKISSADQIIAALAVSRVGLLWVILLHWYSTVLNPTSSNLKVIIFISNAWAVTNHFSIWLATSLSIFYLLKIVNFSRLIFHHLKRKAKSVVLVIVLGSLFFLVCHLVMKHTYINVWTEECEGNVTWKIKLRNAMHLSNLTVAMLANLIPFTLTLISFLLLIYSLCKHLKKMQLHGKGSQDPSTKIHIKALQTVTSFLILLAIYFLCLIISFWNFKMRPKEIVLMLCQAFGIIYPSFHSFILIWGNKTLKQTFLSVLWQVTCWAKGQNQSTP

[6] = target: T5, Taste receptor type 2 member 39 (Homo sapiens) (UniProt P59534); assay: Agonist activity at human TAS2R39 expressed in HEK293T cells co-expressing Galpha15 assessed as increase in intracellular calcium level at 20 mM by Calcium-3 dye based fluorescence assay relative to control
T5 sequence (whole entry): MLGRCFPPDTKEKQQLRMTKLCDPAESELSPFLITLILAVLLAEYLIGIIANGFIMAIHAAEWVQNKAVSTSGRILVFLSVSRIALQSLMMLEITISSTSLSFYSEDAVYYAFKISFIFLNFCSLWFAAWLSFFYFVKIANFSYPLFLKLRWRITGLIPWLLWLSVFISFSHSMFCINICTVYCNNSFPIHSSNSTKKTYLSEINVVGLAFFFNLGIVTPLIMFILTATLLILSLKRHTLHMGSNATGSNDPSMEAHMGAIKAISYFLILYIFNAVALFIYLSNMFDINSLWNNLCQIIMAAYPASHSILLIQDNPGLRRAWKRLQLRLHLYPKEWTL

[7] = target: T6, Taste receptor type 2 member 9 (Homo sapiens) (UniProt Q9NYW1); assay: Agonist activity at human TAS2R9 expressed in HEK293T cells co-expressing Galpha15 assessed as increase in intracellular calcium level at 20 mM by Calcium-3 dye based fluorescence assay relative to control
T6 sequence (whole entry): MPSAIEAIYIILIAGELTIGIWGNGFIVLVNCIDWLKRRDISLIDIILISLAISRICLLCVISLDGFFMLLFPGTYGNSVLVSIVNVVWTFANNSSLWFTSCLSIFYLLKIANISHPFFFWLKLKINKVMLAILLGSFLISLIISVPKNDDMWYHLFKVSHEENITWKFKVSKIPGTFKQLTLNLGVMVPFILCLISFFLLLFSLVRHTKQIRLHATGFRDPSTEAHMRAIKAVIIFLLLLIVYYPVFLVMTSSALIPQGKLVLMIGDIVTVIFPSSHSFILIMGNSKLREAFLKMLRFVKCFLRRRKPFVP

[8] = target: T7, Taste receptor type 2 member 4 (Homo sapiens) (UniProt Q9NYW5); assay: Agonist activity at human TAS2R4 expressed in HEK293T cells co-expressing Galpha15 assessed as increase in intracellular calcium level at 20 mM by Calcium-3 dye based fluorescence assay relative to control
T7 sequence (whole entry): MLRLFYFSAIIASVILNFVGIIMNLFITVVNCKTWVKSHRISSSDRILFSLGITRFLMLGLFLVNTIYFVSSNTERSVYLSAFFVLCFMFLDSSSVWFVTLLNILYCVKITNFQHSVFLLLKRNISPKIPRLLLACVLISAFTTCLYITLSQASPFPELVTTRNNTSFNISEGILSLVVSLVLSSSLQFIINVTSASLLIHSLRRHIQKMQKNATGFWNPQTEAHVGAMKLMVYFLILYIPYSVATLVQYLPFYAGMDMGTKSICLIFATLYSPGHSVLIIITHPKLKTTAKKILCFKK

Chain of Taste receptor type 2 member 40 (Homo sapiens) (P59535 whole entry): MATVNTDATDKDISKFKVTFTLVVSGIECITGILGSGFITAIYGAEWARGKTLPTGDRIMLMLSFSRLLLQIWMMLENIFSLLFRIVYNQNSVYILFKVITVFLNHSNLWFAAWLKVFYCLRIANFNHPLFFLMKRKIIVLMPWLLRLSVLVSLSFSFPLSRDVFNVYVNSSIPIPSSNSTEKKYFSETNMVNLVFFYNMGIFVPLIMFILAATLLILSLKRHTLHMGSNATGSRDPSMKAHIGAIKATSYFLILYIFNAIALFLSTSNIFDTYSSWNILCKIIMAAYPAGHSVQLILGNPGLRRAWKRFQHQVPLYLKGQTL

Activity [1] [%]	Activity [2] [%]	Activity [3] [%]	Activity [4] [%]	Activity [5] [%]	Activity [6] [%]	Activity [7] [%]	Activity [8] [%]	SMILES
< 40	< 40	< 40	< 40	< 40	< 40	> 40	> 40	CC1=CC(=O)NS(=O)(=O)O1
< 40	< 40	< 40	< 40	< 40	< 40	> 40	> 40	CC(O)C(=O)[O-].[K+] (centres undefined)
< 40	< 40	< 40	< 40	< 40	< 40	> 40	> 40	[Cl-].[K+] [POTASSIUM CHLORIDE]
